Results: US20260034218A1, “ALLEVIATING GRAFT VERSUS HOST DISEASE USING ENGINEERED INKT CELLS” (The Regents of the University of California, priority 2022, published 2026)

Tests used:
HSC-iNKT cells [1] = assay: GCV in vivo killing assay, NSG xenograft mouse model; set-up: species or system human cells in NSG mice; settings: GCV i.p. 50 mg/kg per day, 5 days
Description: (§1) To increase the safety profile of HSC-iNKT cell product, we included an sr39TK PET imaging/suicide gene in the lentiviral vector, which allows for the in vivo monitoring of these cells using PET imaging and the elimination of these cells through ganciclovir (GCV)-induced depletion in case of an adverse event (FIGS S1A and 1B in Li et al.).
GCV in vivo killing assay was performed using an NSG xenograft mouse model. NSG mice received i.v. injection of 1×10^7 HSC-iNKT cells on day 0, followed by i.p. injection of GCV for 5 consecutive days (50 mg/kg per injection per day). On day 5, mice were terminated. Multiple tissues (i.e., blood, spleen, liver, and lung) were collected and processed for flow cytometry analysis to detect tissue-infiltrating HSC-iNKT cells (identified as iNKT TCR^+CD45^+), following established protocols (Li et al., 2021b; Y. R. Li et al., 2022; Zhu et al., 2019).

HSC-iNKT cells [2] = assay: GCV in vitro killing assay; format: cell-based, human; settings: GCV 0-50 μM, 4 days
Description: as §1
For GCV in vitro killing assays, HSC-iNKT cells were cultured in C10 medium in the presence of titrated amount of GCV (0-50 μM) for 4 days; live HSC-iNKT cells were then counted using a hematocytometer (VWR) via Trypan Blue staining (Fisher Scientific).

## Nc1nc(O)c2ncn(COC(CO)CO)c2n1 [GCV, Ganciclovir]
HSC-iNKT cells [1]
  depletion of HSC-iNKT cells from blood, liver, spleen and lung: efficient depletion
HSC-iNKT cells [2]
  killing of HSC-iNKT cells in cell culture: effective killing
